Experimental data: article PMC3613864 (Cell, 2012)
“Also recorded” adds a separate entry of the source. Read-outs that look alike come from different tables or passages of the source.

How the values were obtained:
6133/MPL cells [1] = test: Transplantation of drug-pre-treated 6133/MPL cells into mice; assay type: in vivo, C57Bl/6 mice
CMK cells [2] = test: Polyploidization, proliferation, apoptosis and CD41/CD42 expression in CMK cells; assay type: cell-based, human
phospho-histone H3 = test: Phosphorylation of histone H3 in CMK cells; assay type: cell-based, human
AURKB = AURKB (Homo sapiens, UniProt Q96GD4); test: Phosphorylation of Aurora kinases in CMK cells by Western blot; assay type: cell-based
Chain of AURKB (Q96GD4 whole entry): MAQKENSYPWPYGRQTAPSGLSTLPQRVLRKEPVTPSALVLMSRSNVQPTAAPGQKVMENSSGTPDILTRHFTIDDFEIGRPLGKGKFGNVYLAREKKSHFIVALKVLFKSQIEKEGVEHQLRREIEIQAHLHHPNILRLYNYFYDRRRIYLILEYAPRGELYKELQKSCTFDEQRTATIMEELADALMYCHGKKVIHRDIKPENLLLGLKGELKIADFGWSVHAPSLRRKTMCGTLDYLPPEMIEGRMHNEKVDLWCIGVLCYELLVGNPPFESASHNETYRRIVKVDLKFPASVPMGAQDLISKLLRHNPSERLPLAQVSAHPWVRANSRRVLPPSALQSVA

tg-ERG cells = test: AMKL cell line derived from ERG transgenic mice; assay type: cell-based; conditions: tg-ERG cells (data not shown)
[3] = test system: primary human megakaryocytes; test: Primary human megakaryocytes expanded from CD34+ cells; assay type: cell-based
AURKA = molecular target: T1, AURKA (Homo sapiens, UniProt O14965); test: Phosphorylation of Aurora kinases in CMK cells by Western blot; assay type: cell-based
T1 sequence (O14965 1-403): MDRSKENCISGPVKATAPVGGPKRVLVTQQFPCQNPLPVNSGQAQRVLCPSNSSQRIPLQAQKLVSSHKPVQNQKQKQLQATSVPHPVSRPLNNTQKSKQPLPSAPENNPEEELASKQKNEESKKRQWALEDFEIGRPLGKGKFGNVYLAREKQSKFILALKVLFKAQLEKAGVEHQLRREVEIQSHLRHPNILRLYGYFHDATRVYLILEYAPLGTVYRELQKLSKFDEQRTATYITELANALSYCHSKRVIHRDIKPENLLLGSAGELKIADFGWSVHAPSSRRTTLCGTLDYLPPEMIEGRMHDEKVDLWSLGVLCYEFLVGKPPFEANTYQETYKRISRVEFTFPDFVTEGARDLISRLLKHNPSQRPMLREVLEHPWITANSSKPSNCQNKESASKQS

6133/MPL cells [4] = test: 6133/MPL cells in vitro; assay type: cell-based; conditions: 6133/MPL murine cell line
CMK cells [5] = assay type: cell-based, human; conditions: three-day incubation
[6] = test system: murine bone marrow-derived megakaryocytes; test: Primary murine hematopoietic progenitor cells cultured with THPO; assay type: cell-based; conditions: primary mouse bone marrow cells cultured ex vivo
[7] = Oral pharmacokinetics, plasma concentration after a single dose; conditions: single oral administration of 15 mg/kg
6133/MPL cells [8] = test: Drug treatment of mice transplanted with 6133/MPL cells; assay type: in vivo, C57Bl/6 mice
in vivo = conditions: C57Bl/6, mouse, plasma, po, 15 mg/kg
[9] = test system: human CD41+ non-DS-AMKL blasts; test: Human non-DS-AMKL blasts cultured ex vivo; assay type: cell-based; conditions: 0.1 µM, 6 days
AURKA relative to AURKB = conditions: ref Gorgun et al., 2010; Manfredi et al., 2011; cited from earlier work
AMKL-derived cells = test: Phenotype in AMKL-derived cells; assay type: cell-based; conditions: data not shown
402 purified kinases = test: Ambit KinomeScan kinase binding profile; conditions: of 402 kinases; 5 µM diMF
[10] = test system: leukemia blasts that harbor activated oncogenic forms of KIT, FLT3, and BCR-ABL; conditions: ref Mali et al., 2011; cited from earlier work
[11] = CMK cells, 72 hr, Fig 2: K252a, latrunculin B, diMF 5 µM, SU6656 4 µM
[12] = 1 µM, CMK cells (data not shown)
[13] = CMK cells, 0.1 µM paclitaxel 18 hr then compound 2 hr

**Q.** For CCN(CCO)CCCOc1ccc2c(Nc3cc(CC(=O)Nc4cccc(F)c4)[nH]n3)ncnc2c1 [AZD1152-HQPA], which “leukemia development after transplantation of pre-treated cells” value (6133/MPL cells [1]; 6133/MPL cells pre-treated 24 hr with 3 µM) is on record?
**A.** failed to significantly interfere with leukemia development

**Q.** And the apoptosis (CMK cells [2]; [11])?
**A.** induced

**Q.** What about the polyploidization (CMK cells [2]; [11]) of the same molecule?
**A.** induced robust polyploidization

**Q.** And the proliferation (CMK cells [2]; [11])?
**A.** restricted proliferation

**Q.** And the “phospho-histone H3 level” value (phospho-histone H3)?
**A.** reduction in phospho-histone H3

**Q.** What about the phospho-AURKB (AURKB; [12]) of the same molecule?
**A.** complete loss of phospho-AURKA and AURKB

**Q.** What about the AURKB phosphorylation (AURKB; [13]) of the same molecule?
**A.** reduced phosphorylation of both Aurora A and B kinases

**Q.** What about the “proliferation and megakaryocyte lineage-specific surface marker expression” value (tg-ERG cells) of the same molecule?
**A.** induced proliferation arrest and megakaryocyte lineage-specific surface marker expression

**Q.** What about the “polyploidization of primary human megakaryocytes” value [3] of the same molecule?
**A.** induced robust and selective polyploidization

**Q.** What about the phospho-AURKA (AURKA; [12]) of the same molecule?
**A.** complete loss of phospho-AURKA and AURKB

**Q.** And the “AURKA phosphorylation / autophosphorylation” value (AURKA; [13])?
**A.** reduced phosphorylation of both Aurora A and B kinases

**Q.** What about the “polyploidization, CD41 and CD42 expression, and apoptosis” value (6133/MPL cells [4]) of the same molecule?
**A.** increased polyploidization, CD41 and CD42 expression, and apoptosis

**Q.** Which apoptosis (CMK cells [2]; [11]) does the source give for COC(=O)[C@@]1(O)C[C@H]2O[C@]1(C)n1c3ccccc3c3c4c(c5c6ccccc6n2c5c31)C(=O)NC4 [K252a] here?
**A.** inducing

**Q.** What about the polyploidization (CMK cells [2]; [11]) of the same molecule?
**A.** inducing

**Q.** And the proliferation (CMK cells [2]; [11])?
**A.** inhibited

**Q.** What about the “screening positive: increased fraction of cells with DNA content beyond a cutoff (between 4N and 8N) compared to DMSO” value (“screening positive: increased fraction” below) (CMK cells [5]) of the same molecule?
**A.** identified

**Q.** Which “animals surviving up to 120 days after transplantation of pre-treated cells” value (6133/MPL cells [1]; 6133/MPL cells pre-treated 24 hr with 1 µM) does the source give for COc1cc(Nc2ncc3c(n2)-c2ccc(Cl)cc2C(c2c(F)cccc2OC)=NC3)ccc1C(=O)O [MLN8237, Alisertib] here?
**A.** 80%

**Q.** And the apoptosis (CMK cells [2]; [11])?
**A.** induced

**Q.** And the polyploidization (CMK cells [2]; [11])?
**A.** induced robust polyploidization

**Q.** What about the proliferation (CMK cells [2]; [11]) of the same molecule?
**A.** restricted proliferation

**Q.** What about the “polyploidization and expression of CD41 and CD42” value [6] of the same molecule?
**A.** induced polyploidization and expression of CD41 and CD42

**Q.** And the “phospho-histone H3 level” value (phospho-histone H3)?
**A.** accumulation of phospho-histone H3

**Q.** And the bioavailability [7]?
**A.** excellent bioavailability

**Q.** What about the “mean plasma concentrations for at least 12 hr” value [7] of the same molecule?
**A.** above 0.5 µM

**Q.** And the “infiltration of leukemic cells (liver, lung)” value (6133/MPL cells [8]; 15 mg/kg)?
**A.** striking reduction of infiltration of leukemic cells

**Q.** What about the “peripheral white blood cell count, spleen and liver weights” value (6133/MPL cells [8]; 15 mg/kg for 2 weeks vs vehicle) of the same molecule?
**A.** significantly reduced peripheral white blood cell count and spleen and liver weights

**Q.** And the “autophosphorylation of AURKB” value (AURKB; 0.1 µM, CMK cells)?
**A.** but not AURKB

**Q.** What about the Cmax (in vivo) of the same molecule?
**A.** 34.8 µM

**Q.** What about the Tmax (in vivo) of the same molecule?
**A.** 0.5 h

**Q.** What about the half-life (in vivo) of the same molecule?
**A.** 3.1 h

**Q.** And the “proliferation and megakaryocyte lineage-specific surface marker expression” value (tg-ERG cells)?
**A.** induced proliferation arrest and megakaryocyte lineage-specific surface marker expression

**Q.** And the “polyploidization and proliferation of human non-DS AMKL cells” value [9]?
**A.** induced both polyploidization and proliferative arrest

**Q.** And the “polyploidization of primary human megakaryocytes” value [3]?
**A.** induced robust and selective polyploidization

**Q.** And the “selectivity for AURKA relative to AURKB in cells” value (AURKA relative to AURKB)?
**A.** 200 fold

**Q.** What about the “AURKA phosphorylation / autophosphorylation” value (AURKA) of the same molecule?
**A.** reduced AURKA autophosphorylation

**Q.** And the “autophosphorylation of AURKA” value (AURKA)?
**A.** inhibited autophosphorylation of AURKA

**Q.** What about the “polyploidization, CD41 and CD42 expression, and apoptosis” value (6133/MPL cells [4]) of the same molecule?
**A.** increased polyploidization, CD41 and CD42 expression, and apoptosis

**Q.** For CN(C)S(=O)(=O)c1ccc2c(c1)/C(=C/c1cc3c([nH]1)CCCC3)C(=O)N2 [SU6656], which apoptosis (CMK cells [2]; [11]) is on record?
**A.** inducing

**Q.** What about the polyploidization (CMK cells [2]; [11]) of the same molecule?
**A.** inducing

**Q.** What about the proliferation (CMK cells [2]; [11]) of the same molecule?
**A.** inhibited

**Q.** With C=C1[C@@H](C)[C@H]2[C@H](Cc3ccccc3)NC(=O)[C@]23OC(=O)/C=C/[C@H](O)CCC[C@@H](C)C/C=C/[C@H]3[C@@H]1O [cytochalasin B] as the molecule, how does the “screening positive: increased fraction” value (CMK cells [5]) read?
**A.** positives

**Q.** With O=S(=O)(c1cccc2cnccc12)N1CCCNCC1 [fasudil] as the molecule, how does the “activity / phenotype in AMKL-derived cells compared with diMF” value (AMKL-derived cells) read?
**A.** did not fully recapitulate the strong phenotype; also recorded: lack of activity

**Q.** What about the “number of kinases whose binding to the immobilized ligand was inhibited by more than 65%” value (402 purified kinases) of the same molecule?
**A.** 27

**Q.** What about the “growth of leukemia cells in vivo and in vitro” value [10] of the same molecule?
**A.** restricted the growth

**Q.** Which apoptosis (CMK cells [2]; [11]) does the source give for C/C1=C/C(=O)O[C@@H]2C[C@@H](CC[C@H](C)/C=C\CC1)O[C@@](O)([C@@H]1CSC(=O)N1)C2 [latrunculin B] here?
**A.** inducing

**Q.** And the polyploidization (CMK cells [2]; [11])?
**A.** inducing

**Q.** What about the proliferation (CMK cells [2]; [11]) of the same molecule?
**A.** inhibited

**Q.** What about the “screening positive: increased fraction” value (CMK cells [5]) of the same molecule?
**A.** positives

**Q.** Which results are given for c1nc2nc(Nc3ccc(N4CCOCC4)cc3)nc(NC3CCCCC3)c2[nH]1 [reversine]?
**A.** apoptosis (CMK cells [2]; [11]): inducing; polyploidization (CMK cells [2]; [11]): inducing; proliferation (CMK cells [2]; [11]): inhibited; screening positive: increased fraction of cells with DNA content beyond a cutoff (between 4N and 8N) compared to DMSO (CMK cells [5]): identified

**Q.** Which apoptosis (CMK cells [2]) does the source give for JAK3 inhibitor VI here?
**A.** inducing

**Q.** And the polyploidization (CMK cells [2])?
**A.** inducing; also recorded: Induction of CMK polyploidization

**Q.** And the “screening positive: increased fraction” value (CMK cells [5])?
**A.** identified
